Measurements: US11549123B2, “Plant EPSP synthases and methods of use” (PIONEER HI-BRED INTERNATIONAL, INC., priority 2015, dated 2023)
Numbering of substitutions follows the chain as printed.

What was measured:
[1] = test system: EPSPS with TIPS mutations (T103I and P107S, as in GA21); conditions: Funke et al. 2009; Yu et al. 2015; cited from earlier work
[2] = target: Zea mays EPSPS variant 208V 313G (Zea mays, UniProt O24566, E312G/I207V); assay: EPSPS reaction rate with or without 10 uM glyphosate, 208V 313G; type: biochemical; conditions: pH 7; read-out: Reaction rate with 10 μM glyph, % no glyph; note: 50 µM PEP and S3P
[3] = target: Zea mays EPSPS variant Zm-G102A (Zea mays, UniProt O24566, G101A); assay: Rapid two-rate method for (kcat/KM)*KI, Zm-G102A; type: biochemical; conditions: [E] 0.07 uM, [Gly] 1000 uM
From the text: (§1) There are several practical considerations for accurately estimating (kcat/KM)*KI with the rapid method. […] 2) The inhibitor concentration must be adjusted so as to obtain a degree of inhibition that minimally amplifies the error in the term v0-vi in Equation 3. If inhibition is too little, v0-vi will be small, and the error in the multiplier vi×v0/(v0-vi) will be large. […] 3) Substrate concentration should be set at the approximate KM of the parental variant(s), subject to the sensitivity of the assay. High substrate concentration obscures sensitivity to the inhibitor and reduces stringency for capturing improvements in KM. Depending on the necessity for speed, there exists opportunity for customizing enzyme and inhibitor concentrations. […] The rapid method was repeated for those and obtained data that correlated better with data obtained by substrate saturation analysis. For screening purposes however, that correlation step is not necessary. Conditions can be set so that variants with a pre-determined minimal fitness level are accurately quantified.
(§2) In Table 15, parameters above the heavy line for the rapid method were obtained under standard conditions. For variants shown below the heavy line, the rapid analysis was repeated with enzyme or glyphosate concentrations adjusted as needed to generate sufficient signal within the limits for linear initial rates.

[4] = target: T1, Zea mays EPSPS variant Zm-H6 (868-H6) with A69V (H6-A69V) (Zea mays, UniProt O24566, A1R/A3W/A415G/A68V/A71Q/D401G/E301S/E390G/G101A/I207L/K83R/L97C/T278A/T360S/T440Q/V437R); assay: Rapid two-rate method for (kcat/KM)*KI, H6-A69V; type: biochemical; conditions: [E] 0.07 uM, [Gly] 1000 uM
T1 sequence (O24566 with tags, fused parts or gaps A1R/A3W/A68V/A71Q/K83R/L97C/G101A/I207L/T278A/E301S/T360S/E390G/D401G/A415G/V437R/T440Q): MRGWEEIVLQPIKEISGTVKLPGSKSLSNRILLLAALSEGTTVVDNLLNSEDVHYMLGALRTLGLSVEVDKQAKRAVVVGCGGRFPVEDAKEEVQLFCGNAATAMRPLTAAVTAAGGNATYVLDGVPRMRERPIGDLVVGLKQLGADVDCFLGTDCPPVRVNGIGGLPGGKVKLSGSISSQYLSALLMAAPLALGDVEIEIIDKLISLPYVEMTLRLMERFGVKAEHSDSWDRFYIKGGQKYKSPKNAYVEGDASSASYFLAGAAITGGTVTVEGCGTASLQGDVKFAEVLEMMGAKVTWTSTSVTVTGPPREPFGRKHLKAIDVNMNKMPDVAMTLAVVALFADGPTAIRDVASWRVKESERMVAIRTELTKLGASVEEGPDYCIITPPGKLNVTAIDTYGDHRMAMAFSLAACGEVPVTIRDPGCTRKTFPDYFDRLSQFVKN
From the text: as §1, §2

[5] = target: T2, Zea mays EPSPS variant Zm-H6 (868-H6) with A76V (H6-A76V) (Zea mays, UniProt O24566, A1R/A3W/A415G/A71Q/A75V/D401G/E301S/E390G/G101A/I207L/K83R/L97C/T278A/T360S/T440Q/V437R); assay: Substrate saturation kinetic analysis with glyphosate, H6-A76V; type: biochemical
T2 sequence (O24566 with tags, fused parts or gaps A1R/A3W/A71Q/A75V/K83R/L97C/G101A/I207L/T278A/E301S/T360S/E390G/D401G/A415G/V437R/T440Q): T1 sequence (O24566 with tags, fused parts or gaps A1R/A3W/A68V/A71Q/K83R/L97C/G101A/I207L/T278A/E301S/T360S/E390G/D401G/A415G/V437R/T440Q) with V69A, A76V

[6] = target: T3, Zea mays EPSPS variant Zm-H6 (868-H6) with R61Y (H6-R61Y) (Zea mays, UniProt O24566, A1R/A3W/A415G/A71Q/D401G/E301S/E390G/G101A/I207L/K83R/L97C/R60Y/T278A/T360S/T440Q/V437R); assay: Substrate saturation kinetic analysis with glyphosate, H6-R61Y; type: biochemical
T3 construct: 868-H6 plus R61Y; E. coli BL21(DE3), Ni-NTA purified
T3 sequence (O24566 with tags, fused parts or gaps A1R/A3W/R60Y/A71Q/K83R/L97C/G101A/I207L/T278A/E301S/T360S/E390G/D401G/A415G/V437R/T440Q): T1 sequence (O24566 with tags, fused parts or gaps A1R/A3W/A68V/A71Q/K83R/L97C/G101A/I207L/T278A/E301S/T360S/E390G/D401G/A415G/V437R/T440Q) with R61Y, V69A

[7] = target: Zea mays EPSPS variant 278V (Zea mays, UniProt O24566, T277V); assay: EPSPS reaction rate with or without 10 uM glyphosate, 278V; type: biochemical; conditions: pH 7; read-out: Reaction rate with 10 μM glyph, % no glyph; note: 50 µM PEP and S3P
Bacterial EPSPS (CP4) = Bacterial EPSPS (CP4) (Agrobacterium sp., UniProt Q9R4E4); assay: Rapid two-rate method for (kcat/KM)*KI, bacterial EPSPS (CP4); type: biochemical
From the text: as §1, §2

Row | SMILES | kcat relative to native kcat [1] [%] | activity at 10 µM [2] [%] | (kcat/KM)*KI [3] | (kcat/KM)*KI [4] | Ki [5] [µM] | (kcat/KM)*KI ([5]; substrate saturation, H6-A76V) | Ki [6] [µM] | (kcat/KM)*KI ([6]; substrate saturation, H6-R61Y) | activity at 10 µM [7] [%] | (kcat/KM)*KI (Bacterial EPSPS (CP4); rapid method repeated, CP4, [E] 0.007 uM, [Gly] 2000 uM) | (kcat/KM)*KI (Bacterial EPSPS (CP4); rapid method, Bacterial EPSPS, [E] 0.07 uM, [Gly] 1000 uM)
1 | C=C(OP(=O)(O)O)C(=O)O [PEP, phosphoenolpyruvate] | ~5 | – | – | – | – | – | – | – | – | – | –
2 | O=C(O)CNCP(=O)(O)O [glyphosate, N-phosphonomethylglycine] | – | 3.21 | 3596 | 2977 | 538 | 2490 | 309 | 1640 | 3.25 | 111800 | 64262
